Data reported in patent publication US11312726B2, “Thienodiazepine derivatives and application thereof” (priority 2017, dated 2022).
Like-named read-outs stand apart in the source and are kept apart here.

Assays:
BRD4-BD1 = BRD4-BD1 (Homo sapiens (Human), UniProt O60885); assay: BRD4 biochemical activity test (TR-FRET), BD1; settings: read-out: BRD4 Binding (BD1), IC50
Text: (§1) BRD4 Biochemical Activity Test
(§2) 1) BRD4-BD1 and BRD4-BD2 proteins of BPS Company, polypeptide of ANASPEC Company, and test reagent of PerkinElmer Company were used in the experiments;
(§3) 2) The TR-FRET experimental principle was used in the experiment to screen compounds.
(§4) 3) Relevant control compounds
(§5) 1) Preparation of the Compound Plate:
(§6) Preparation of the compound plate in the experiment was achieved by Echo:
(§7) 2) Preparation of Reaction Reagents:
(§8) Relevant reaction reagents should be prepared on the day of the experiment:
(§9) a) Formulation of 1× assay buffer;
(§10) b) Formulation of 3× component solution for the experiment: […]
(§11) 1. The reagent was taken out and placed on ice to naturally melt for later use;
(§12) 2. “Solution A” (protein solution), “solution B” (polypeptide solution), and “solution C” (test reagent solution) used in the experiment were formulated with the 1× assay buffer, and during the formation of the 3× solution from the components used in the experiment reaction system, the amounts of solutions A, B and C must be enough for the required amounts in the experiment.
(§13) 3) Experimental Operation Steps:
(§14) The experiment plate was a plate that contained a gradient concentration of the compound and a corresponding DMSO solution and was prepared with ECHO before the experiment:
(§15) a) The experiment plate was taken out, and 5 μL/well of “solution A” (protein solution) was added to columns 2-23 of the experiment plate, then 5 μL/well of 1× assay buffer was added to columns 1 and 24 of the experiment plate, and columns 1 and 24 were used as Min control in the experiment system;
(§16) b) Centrifugation at 1000 rpm was carried out for 30 seconds;
(§17) c) The plate was incubated at 23° C. for 20 minutes;
(§18) d) After 20 minutes of incubation, 5 μL/well of “solution B” (polypeptide solution) was added to columns 1-24 of the experiment plate;
(§19) e) Centrifugation at 1000 rpm was carried out for 30 seconds;
(§20) f) The plate was incubated at 23° C. for 20 minutes;
(§21) g) After 20 minutes of incubation, 5 μL/well of “solution C” (test reagent solution) was added to columns 1-24 of the experiment plate;
(§22) h) Centrifugation at 1000 rpm was carried out for 30 seconds;
(§23) i) The plate was incubated at 23° C. for 40 minutes;
(§24) j) The experiment plate was placed on EnVision to read the plate.
(§25) a) The corresponding Max control and Min control of each experiment plate were used to convert to the Z′ value of the experiment plate, and the Z′ value of each plate was ensured to be >0.5;
(§26) b) The IC50 value was calculated from the signal of the control compound by XLFIT5, and ensured to be maintained within 3 times of the average value of historical data.

BRD4-BD2 = BRD4-BD2 (Homo sapiens (Human), UniProt O60885); assay: BRD4 biochemical activity test (TR-FRET), BD2; settings: read-out: BRD4 Binding (BD2), IC50
Text: as §1, §2, §3, §4, §5, §6, §7, §8, §9, §10, §11, §12, §13, §14, §15, §16, §17, §18, §19, §20, §21, §22, §23, §24, §25, §26

[1] = tested on: Human prostatic cancer PC-3 cell subcutaneous xenograft tumor; assay: In vivo pharmacodynamics, PC-3 subcutaneous xenograft tumor model; settings: 50 mg/kg PO BID × 21 days
Experimental: In Vivo Pharmacodynamics Study of Compound 32 on Human Prostatic Cancer PC-3 Cell Subcutaneous Xenograft Tumor Model
The formulation method of the test substance was the same as in Table 2, and the animal grouping and the dosage regimen were the same as in Table 3.
Strain: BALB/c nude mouse
Week-age and weight: 6-8 weeks of age, 18-22 grams of body weight
Supplier: Shanghai Sippr-BK laboratory animal Co. Ltd.
3. Experiment Methods and Steps
Human prostatic cancer PC-3 cells were cultured in monolayer in vitro, and the culture conditions were F-12K culture medium (supplier: Gibco; article number: 21127-022; manufacturing batch number: 1868870) with 10% fetal bovine serum, 100 U/mL penicillin and 100 μg/mL streptomycin. The culture was performed at 37° C. in 5% CO2. Conventional digestion treatment with pancreatin-EDTA for passage was carried out twice a week. When the cells were in the exponential growth phase, the cells were harvested, counted, and inoculated.
3.2 Tumor Cell Inoculation
0.1 mL of 10×10^6 PC-3 cells were subcutaneously inoculated into the right-back of each nude mouse. The grouping and administration was started when the average tumor volume reached 100-150 mm^3.
3.3 Tumor Measurement, Experiment Indices, and Statistical Analysis were the Same as MDA-MB-231 Model

[2] = In vivo pharmacokinetics test in mice; settings: female Balb/c mice; for AUC(0-inf): read-out: Curve area (0-inf) AUC0-inf; for AUC(0-t): read-out: Curve area (0-t) AUC0-last; for half-life: read-out: Half life T1/2 (converted)
Experimental: In Vivo Pharmacokinetics Test of Compound 32 in Mice
Female Balb/c mice were used as test animals. The compound 32 was administrated intravenously and intragastrically to mice, then the drug concentrations in the plasma at different time points were determined by the LC/MS/MS method. The in vivo pharmacokinetic behavior of compound 32 in mice was studied, and its pharmacokinetic characteristics were evaluated.
1.1 Experiment drug: Compound 32
1.2 Experiment animals: Sixteen healthy adult female Balb/c mice were divided into four groups according to the principle of similar body weight, with four mice in each group. The animals were purchased from Shanghai Lingchang BioTech Co., Ltd. of Shanghai SLAC Laboratory Animal Co., Ltd., and the animal production license number was SCXK (Shanghai) 2013-0018.
An appropriate amount of the sample was taken, 5% final volume of DMSO was added, and then 95% final volume of 20% HP-β-CD was added. The mixture was ultrasonically stirred to obtain a 0.5 mg/mL clear solution. After filtration, it was used for the intravenous administration.
An appropriate amount of the sample was taken, and dissolved in a 0.5% sodium carboxymethyl cellulose solution. The mixture was ultrasonically stirred to obtain a 0.5 mg/mL homogeneous suspension, which was used for the intragastric administration.
Eight female Balb/c mice were divided into two groups. After fasting overnight, the first group was administered intravenously with the administration volume of 2.5 mL/kg and the dosage of 1 mg/kg. […]
After the female Balb/c mice were intravenously administrated, 30 μL of blood was taken from different mice at each time point of 0.0833, 0.25, 0.5, 1, 2, 4, 8 and 24 hours, and placed in test tubes containing 2 μL of EDTA-K2; and after the female Balb/c mice were intragastrically administrated, 30 μL of blood was taken at an alternative location at each time point of 0.25, 0.5, 1, 2, 4, 8 and 24 hours, and placed in test tubes containing 2 μL of EDTA-K2. The tube was centrifuged at 3000 g for 15 minutes to separate the plasma, and the separated plasma was stored at −60° C. Animals could take food 2 hours after the administration.
The LC/MS/MS method was used to measure the content of the compound to be tested in the plasma after the intravenous and intragastric administration to the mice. The linear range of the method was 2.00-6000 nmol/L; the plasma samples were analyzed after the protein precipitation by acetonitrile treatment.

[3] = mouse, plasma, po, Intragastric, 3 mg/kg (table; text says 2 mg/kg)
[4] = mouse, plasma, Intravenous, 1 mg/kg

In the case of Cc1sc2c(c1C)C(c1ccc(Cl)cc1)=N[C@@H](CC(=O)Nc1ccc3c(c1)COC3=O)c1nnc(C)n1-2 [Compound 32], the IC50 (BRD4-BD1) is reported as 66 nM, the IC50 (BRD4-BD2) is reported as 10 nM and the “tolerance of the animals” value [1] is reported as “well tolerated”. For the same compound, the “tumor inhibition effect compared with solvent control” value ([1]; 21st day) was “significant tumor inhibition effect”, the “relative tumor proliferation rate T/C” value ([1]; 21st day after administration) was 44.63% and the “tumor growth inhibition rate TGI” value ([1]; 21st day after administration) was 58.4%. For the same compound, the “absorption (in words)” value [2] was “good absorption”, the “pharmacokinetic clearance (in words)” value [2] was “low pharmacokinetic clearance” and the AUC(0-inf) [2, 3] was 2.82 µM·h. It also gave an AUC(0-t) [2, 3] of 2.74 µM·h, a half-life [2, 3] of 1.47 h and a Tmax ([2]; mouse, plasma, po, Intragastric, 3 mg/kg (table; text says 2 mg/kg), read-out: Time to peak Tmax) of 1 h. The Vd ([2]; mouse, plasma, Intravenous, 1 mg/kg, read-out: Apparent distribution volume Vdss) was 1.19 L/kg, the clearance ([2]; mouse, plasma, Intravenous, 1 mg/kg, read-out: Clearance rate Cl) was 12.5 mL/min/kg and the AUC(0-inf) [2, 4] was 2.5 µM·h. For the same compound, the AUC(0-t) [2, 4] was 2.49 µM·h, the half-life [2, 4] was 1.09 h and the Cmax ([2]; mouse, po, Intragastric, 3 mg/kg (table; text says 2 mg/kg), plasma, read-out: Drug concentration in blood Cmax) was 930 nM.
